From patent US20140038884A1, “ANTIVIRAL PEPTIDES” (priority 2011, published 2014)
Where two headings read alike, the source gives them in different places. Ends that are not written are not given here.

Columns and labels:
HIV-1 = conditions: for influence on the expression level of Ag p24: subfragments containing the GGNK sequence
[1] = Isoelectric point (Ip) of the peptides; type: physicochemical
PE/CA PJ15 cells [2] = assay: Cytotoxicity test, Neutral Red Uptake (NRU) method; type: cell-based; conditions: 50 microM, +24 and +48 hours from administration
Procedure: FIG. 3 (a, b, c). Cytotoxicity tests according to Neutral Red Uptake (NRU) method, performed on the three peptides: 1932 (SEQ ID NO 1), 2733 (SEQ ID NO 2) and 1413 (SEQ ID NO 3), at the two concentrations of 5 and 50 microM at +24 and +48 hours from administration. Therefore, concentrations near (5 microM) to or markedly higher (50 microM) than those employed for carrying out the ex-vivo and in vitro tests were used. Cells used are a tumour cell line denominated PE/CA PJ15. Positive control (denoted in the legends by ctrl+), used at a sublethal concentration of 10 microM, is a commercial proapoptotic peptide, Catalog #62206 (Anaspec-USA).
Treated cells were subjected to MTT assay at +24 and +48 hours from peptide inoculation. […] After a 3-hour incubation at 38° C., formazan crystals were solubilized with HCl solution in isopropanol (0.04 N, 200 μl) and the stained solution was measured by a microplate reader (Packard Spectracount™, Packard BioScience Company, Meriden U.S.A.) with a 570 nm filter. […] In the MTT citotoxicity test at +24 and +48 hours, averages of the values obtained by photometer reading of the data related to tested peptides were compared. […] From a determination of the amount of Neutral Red retained in the cells exposed thereto (in comparison with the control) the relative toxicity of the chemical substances at issue can be assessed. […]

PE/CA PJ15 cells [3] = assay: Cytotoxicity test, MTT method; type: cell-based; conditions: 15 microM, +48 hours from administration
Procedure: FIG. 4 (a, b, c). Cytotoxicity tests according to the MTT method (see protocols) performed on the three peptides: 1932 (SEQ ID NO 1); 2733 (SEQ ID NO 2) and 1413 (SEQ ID NO 3), and at three concentrations of […] at +24 and +48 hours from administration. There were used concentrations near (5 microM) to, or greater (15, 50 microM) than those used in the ex-vivo and in vitro tests, where average concentration of the three peptides is of about 3.65 microM. Cells used are a tumour cell line denominated PE/CA PJ15. Positive control (denoted in the legends by ctrl+), used at a sublethal concentration of 10 microM, is a commercial proapoptotic peptide, Catalog #62206 (Anaspec-USA).
Treated cells were subjected to MTT assay at +24 and +48 hours from peptide inoculation. […] After a 3-hour incubation at 38° C., formazan crystals were solubilized with HCl solution in isopropanol (0.04 N, 200 μl) and the stained solution was measured by a microplate reader (Packard Spectracount™, Packard BioScience Company, Meriden U.S.A.) with a 570 nm filter. […] In the MTT citotoxicity test at +24 and +48 hours, averages of the values obtained by photometer reading of the data related to tested peptides were compared. […]

HIV = assay: Peptide stability, duration of effect on HIV replication in in vitro assays; type: cell-based
Procedure: Current drugs in use for the therapy against HIV infections and AIDS, like e.g. the HAART mixture, are administered in daily doses, whereas the action of the peptides of SEQ ID NO 1, 2, and 3 in in vitro assays highlights a duration of the effect on HIV replication of at least four days.
The effect was verified in two in vitro experimental protocols envisaging: • a treatment of the cells with the virus (adsorption phase), washing, inoculation of the peptide in culture and analysis of viral replication over time; • exposure of the cells to the peptide, adsorption of the cells to the virus, washing, and analysis of viral replication over time.

HIV strain IIIB = assay: In vitro exogenous infection of healthy-donor PBMCs with HIV strain IIIB, p24 ELISA
HIV-1 R5 = conditions: ex vivo
HIV strain BaL = assay: In vitro exogenous infection of healthy-donor PBMCs with HIV strain BaL, p24 ELISA; conditions: at 12 days, 10 microg/ml, regardless of protocol, FIG. 2

Substance | activities A) HIV-1 activation ex vivo, B) inhibitory activity, C) (HIV-1) | Ip (isoelectric point) [1] | also measured
APPGARPLPGPPPPGPPPPGP (listed as Sus sp.) [Peptide 7, Peptide of porcine origin] | do not exhibit any of the activities listed at A), B) and C) | 9.79 | 
APPGARPPPGPPPPGPPPPGP (listed as Sus sp.) [Peptide 4, Peptide of porcine origin] | do not exhibit any of the activities listed at A), B) and C) | 9.79 | 
APPGARPPPPPPPPADQPQQGP (Sus sp) [Peptide 6, Peptide of porcine origin] | do not exhibit any of the activities listed at A), B) and C) | 5.88 | 
DKPKKKPPPPAGPPPPPPPPPGPPPPGP [peptide 2733] |  |  | toxicity with respect to the control (NRU) (PE/CA PJ15 cells [2]): slightly more toxic with respect to the control
GPPPPGKPQ (listed as Homo sapiens) [Peptide 1e] | do not exhibit any of the activities listed at A), B) and C) | 8.75 | 
GPPPQGGN (listed as Homo sapiens) [Peptide 1d] | do not exhibit any of the activities listed at A), B) and C) | 5.52 | 
GPPPQGGNKPQ (listed as Homo sapiens) [Peptide 1b] | exhibit none of the activities listed in points A), B) and C) | 8.75 | influence on the expression level of Ag p24 (HIV-1): in no way influences the expression level of Ag p24
GPPPQGGNKPQGPPPG (listed as Homo sapiens) [Peptide 1c] | exhibit none of the activities listed in points A), B) and C) | 8.75 | influence on the expression level of Ag p24 (HIV-1): in no way influences the expression level of Ag p24
GPPPQGGNKPQGPPPPG (listed as Homo sapiens) [Peptide 1a] | exhibit none of the activities listed in points A), B) and C) | 8.75 | influence on the expression level of Ag p24 (HIV-1): in no way influences the expression level of Ag p24
GPPPQGGNKPQGPPPPGKPQ [peptide 1932] |  |  | toxicity with respect to the control (MTT) (PE/CA PJ15 cells [3]): slightly toxic with respect to the control; toxicity with respect to the control (NRU) (PE/CA PJ15 cells [2]): slightly more toxic with respect to the control
RPPPGPPPPGPPPGP-OH [peptide 1413, RPPPGPPPPGPPPGP] |  | 9.75 | inhibitory activity relative to Con1 (HIV-1; versus Con1 of U.S. Pat. No. 5,981,720, no direct comparison): 130 times; duration of the effect on HIV replication (HIV): at least four; inhibition of viral replication (HIV strain IIIB; +8 days of culture, 10 μg/ml): relevant effect of inhibition of viral replication; virus replication over the time considered (p24 antigen) (HIV strain IIIB; peptide 10 microg/ml, FIG. 1): almost equal to zero; persistence of inhibitory effect (HIV strain IIIB; until day 12, FIG. 1): remained unaltered until day 12; p24 values (HIV-1 R5; after 5 days of culture, control cells 76 picograms/ml): 191 picograms/ml; p24 values (HIV-1 R5; day 10, control cells 79 picograms/ml): 67 pg/mL; inhibition of viral replication (HIV strain BaL): effective in inhibiting viral replication
RSPFFDL (listed as Sus sp.) [Peptide 5, Peptide of porcine origin] | do not exhibit any of the activities listed at A), B) and C) | 5.84 | 
